In patent US8455475B2 (Gruenenthal GmbH, priority 2009, dated 2013):

Key:
[1] = target: T1, human B1R (bradykinin receptor 1) (Homo sapiens, UniProt P46663); assay: FLIPR Ca2+ assay (Fluo-4) on CHO K1 cells stably transfected with the human B1R gene (hB1R cells): % inhibition at 10 μM / IC50, agonist Lys-Des-Arg9-bradykinin; assay type: cell-based; conditions: CHO-K1, human B1R
T1 construct: expressed in transfected cells; host or cells: CHO K1 cells
T1 sequence (P46663 1-353): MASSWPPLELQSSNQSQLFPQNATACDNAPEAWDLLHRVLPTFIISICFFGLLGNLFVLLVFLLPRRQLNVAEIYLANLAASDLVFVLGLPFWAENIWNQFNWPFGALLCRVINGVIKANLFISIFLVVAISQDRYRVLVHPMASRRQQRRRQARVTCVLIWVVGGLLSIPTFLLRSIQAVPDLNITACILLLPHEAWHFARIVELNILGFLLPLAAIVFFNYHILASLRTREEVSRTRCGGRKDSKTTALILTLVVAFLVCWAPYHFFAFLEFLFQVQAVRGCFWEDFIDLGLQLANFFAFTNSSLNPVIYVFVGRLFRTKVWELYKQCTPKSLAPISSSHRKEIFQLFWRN
Procedure, shortened: (§1)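 Antagonism is measured as the drop in peak Fluo-4 Ca2+ signal when the EC80 agonist follows 10–20 min compound exposure. The single-point screen uses 10 μM; IC50 uses several concentrations. Values are given as % of maximal achievable inhibition.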

[2] = target: T2, rat B1R (bradykinin receptor 1) (Rattus norvegicus, UniProt P97583); assay: FLIPR Ca2+ assay (Fluo-4) on CHO K1 cells stably transfected with the B1R gene of the rat (rB1R cells): % inhibition at 10 μM / IC50, agonist Des-Arg9-bradykinin; assay type: cell-based; conditions: CHO-K1, rat B1R
T2 construct: expressed in transfected cells; host or cells: CHO K1 cells
T2 sequence (P97583 1-337): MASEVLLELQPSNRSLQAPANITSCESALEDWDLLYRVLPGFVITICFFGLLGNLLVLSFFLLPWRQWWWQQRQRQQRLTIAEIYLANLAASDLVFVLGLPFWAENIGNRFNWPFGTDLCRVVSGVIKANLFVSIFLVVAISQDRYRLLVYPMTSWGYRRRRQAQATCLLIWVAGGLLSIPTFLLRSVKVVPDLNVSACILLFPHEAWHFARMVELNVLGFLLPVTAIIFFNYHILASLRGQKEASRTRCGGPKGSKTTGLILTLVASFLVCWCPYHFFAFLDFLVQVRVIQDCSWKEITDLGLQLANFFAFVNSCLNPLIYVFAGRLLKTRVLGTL
Procedure, shortened: as §1

Structure (SMILES) | inhibition at 10 µM [1] | inhibition at 10 µM [2]
Cc1cc(OC(F)(F)F)ccc1C(=O)N[C@@H]1CCc2ccc(C(=O)N3CCC4(CC3)CCN(c3ccncc3)C4)cc21 [Example H-75, 2-Methyl-N-[(1R)-6-(3-pyridin-4-yl-3,8-diazaspiro[4.5]decane-8-carbonyl)-2,3-dihydro-1H-inden-1-yl]-4-(trifluoromethyloxy)-benzamide] | 29% | 64%
O=C(N[C@@H]1CCc2ccc(C(=O)N3CCC4(CCN(c5ccncc5)CC4)C3)cc21)c1c(Cl)cccc1C(F)(F)F [Example H-76, 2-Chloro-N-[(1R)-6-(8-pyridin-4-yl-3,8-diazaspiro[4.5]decane-3-carbonyl)-2,3-dihydro-1H-inden-1-yl]-6-(trifluoromethyl)-benzamide] | 100% | 102%
O=C(N[C@@H]1CCCc2ccc(C(=O)N3CCC4(CCCN(c5ccncc5)C4)CC3)cc21)c1ccccc1Cl [Example H-80] | 57% | 105%
O=C(N[C@@H]1CCCc2cc(F)c(C(=O)N3CCC4(CCN(c5ccncc5)CC4)C3)cc21)c1ccccc1Cl [Example H-82, 2-Chloro-N-[(1R)-6-fluoro-7-(8-pyridin-4-yl-3,8-diazaspiro[4.5]decane-3-carbonyl)-1,2,3,4-tetrahydro-naphthalen-1-yl]-benzamide] | 100% | 104%
O=C(N[C@@H]1CCc2ccc(C(=O)N3CCC4(CC3)CCN(c3ccncc3)C4)cc21)c1cncnc1 [Example H-86, N-[(1R)-6-(3-Pyridin-4-yl-3,8-diazaspiro[4.5]decane-8-carbonyl)-2,3-dihydro-1H-inden-1-yl]-pyrimidine-5-carboxylic acid amide] | 95% | 79%
O=C(N[C@@H]1CCOc2cc(F)c(C(=O)N3CCC4(CC3)CCN(c3ccncc3)CC4)cc21)c1ccccc1Cl [Example H-92, 2-Chloro-N-[(4R)-7-fluoro-6-(9-pyridin-4-yl-3,9-diazaspiro[5.5]undecane-3-carbonyl)-3,4-dihydro-2H-chromen-4-yl]-benzamide] | 96% | 104%
Cc1cc2c(cc1C(=O)N1CCC3(CCN(c4ccncc4)CC3)C1)[C@H](NC(=O)c1ccccc1Cl)CC2 [Example H-93, 2-Chloro-N-[(1R)-5-methyl-6-(8-pyridin-4-yl-3,8-diazaspiro[4.5]decane-3-carbonyl)-2,3-dihydro-1H-inden-1-yl]-benzamide] | 100% | 103%
O=C(N[C@@H]1CCc2ccc(C(=O)N3CCC4(CCN(c5ccncc5)CC4)C3)cc21)c1cccc(Cl)c1Cl [Example H-94, 2,3-Dichloro-N-[(1R)-6-(8-pyridin-4-yl-3,8-diazaspiro[4.5]decane-3-carbonyl)-2,3-dihydro-1H-inden-1-yl]-benzamide] | 100% | 98%
O=C(N[C@@H]1CCc2ccc(C(=O)N3CCC4(CC3)CCN(c3ccncc3)CC4)cc21)c1cccc(Cl)c1Cl [Example H-95, 2,3-Dichloro-N-[(1R)-6-(9-pyridin-4-yl-3,9-diazaspiro[5.5]undecane-3-carbonyl)-2,3-dihydro-1H-inden-1-yl]-benzamide] | 100% | 98%
O=C(N[C@@H]1CCc2ccc(C(=O)N3CCC4(CCC(C(=O)N5CCn6ncnc6C5)CC4)CC3)cc21)c1ccccc1Cl [Example H-97, 2-Chloro-N-[(1R)-6-[9-(5,6,7,8-tetrahydro-[1,2,4]triazolo[1,5-a]pyrazine-7-carbonyl)-3-azaspiro[5.5]undecane-3-carbonyl]-2,3-dihydro-1H-inden-1-yl]-benzamide] | 6% | 90%

More lines, now with the values ahead:

inhibition at 10 µM [1] | inhibition at 10 µM [2] | Structure (SMILES)
100% | 104% | O=C(N[C@@H]1CCOc2c(F)cc(C(=O)N3CCC4(CC3)CCN(c3ccncc3)CC4)cc21)c1ccccc1Cl [Example H-78]
78% | 103% | O=C(N[C@@H]1CCCc2ccc(C(=O)N3CCC4(CCCN(c5ccncc5)C4)C3)cc21)c1ccccc1Cl (stereo partly drawn) [Example H-81, 2-Chloro-N-[(1R)-7-(7-pyridin-4-yl-3,7-diazaspiro[4.5]decane-3-carbonyl)-1,2,3,4-tetrahydro-naphthalen-1-yl]-benzamide]
100% | 105% | O=C(N[C@@H]1CCc2ccc(C(=O)N3CCC4(CC3)CCN(c3ccncc3)C4)cc21)c1c(Cl)cccc1C(F)(F)F [Example H-83, 2-Chloro-N-[(1R)-6-(3-pyridin-4-yl-3,8-diazaspiro[4.5]decane-8-carbonyl)-2,3-dihydro-1H-inden-1-yl]-6-(trifluoromethyl)-benzamide]
100% | 104% | O=C(N[C@@H]1CCc2ccc(C(=O)N3CCC4(CCN(c5ccncc5)CC4)C3)cc21)c1cncnc1 [Example H-84, N-[(1R)-6-(8-Pyridin-4-yl-3,8-diazaspiro[4.5]decane-3-carbonyl)-2,3-dihydro-1H-inden-1-yl]-pyrimidine-5-carboxylic acid amide]
100% | 103% | O=C(N[C@@H]1CCc2ccc(C(=O)N3CCC4(CC3)CCN(c3ccncc3)CC4)cc21)c1c(Cl)cccc1C(F)(F)F [Example H-85, 2-Chloro-N-[(1R)-6-(9-pyridin-4-yl-3,9-diazaspiro[5.5]undecane-3-carbonyl]-2,3-dihydro-1H-inden-1-yl]-6-(trilfuoromethyl)-benzamide]
99% | 103% | O=C(N[C@@H]1CCCc2cc(F)c(C(=O)N3CCC4(CC3)CCN(c3ccncc3)C4)cc21)c1ccccc1Cl [Example H-87, 2-Chloro-N-[(1R)-6-fluoro-7-(3-pyridin-4-yl-3,8-diazaspiro[4.5]decane-8-carbonyl)-1,2,3,4-tetrahydro-naphthalen-1-yl]-benzamide]
100% | 104% | O=C(N[C@@H]1CCCc2cc(F)c(C(=O)N3CCC4(CC3)CCN(c3ccncc3)CC4)cc21)c1ccccc1Cl [Example H-88]
99% | 103% | O=C(N[C@@H]1CCc2cc(F)c(C(=O)N3CCC4(CC3)CCN(c3ccncc3)C4)cc21)c1ccccc1Cl [Example H-89, 2-Chloro-N-[(1R)-5-fluoro-6-(3-pyridin-4-yl-3,8-diazaspiro[4.5]decane-8-carbonyl)-2,3-dihydro-1H-inden-1-yl]-benzamide]
100% | 103% | O=C(N[C@@H]1CCc2cc(F)c(C(=O)N3CCC4(CC3)CCN(c3ccncc3)CC4)cc21)c1ccccc1Cl [Example H-90, 2-Chloro-N-[(1R)-5-fluoro-6-(9-pyridin-4-yl-3,9-diazaspiro[5.5]undecane-3-carbonyl)-2,3-dihydro-1H-inden-1-yl]-benzamide]
100% | 104% | O=C(N[C@@H]1CCc2ccc(C(=O)N3CCC4(CC3)CCN(c3ccncc3)C4)cc21)c1ccccc1Cl [Example H-91, 2-Chloro-N-[(1R)-6-(3-pyridin-4-yl-3,8-diazaspiro[4.5]decane-8-carbonyl)-2,3-dihydro-1H-inden-1-yl]-benzamide]
100% | 104% | O=C(c1ccc2c(c1)[C@H](N1Cc3cccc(Cl)c3C1=O)CC2)N1CCC2(CCN(c3ccncc3)CC2)C1 [Example H-96, 7-Chloro-2-[(1R)-6-(8-pyridin-4-yl-3,8-diazaspiro[4.5]decane-3-carbonyl)-2,3-dihydro-1H-inden-1-yl]-2,3-dihydro-isoindol-1-one]
100% | 108% | O=C(N[C@@H]1CCc2ccc(C(=O)N3CCC4(CCN(c5ccncc5)CC4)C3)cc21)c1cc(Cl)ccc1Cl [Example H-98, 2,5-Dichloro-N-[(1R)-6-(8-pyridin-4-yl-3,8-diazaspiro[4.5]decane-3-carbonyl)-2,3-dihydro-1H-inden-1-yl]-benzamide]
100% | 105% | O=C(N[C@@H]1CCc2ccc(C(=O)N3CCC4(CCN(c5ccncc5)CC4)C3)cc21)c1c(Cl)cccc1Cl [Example H-99, 2,6-Dichloro-N-[(1R)-6-(8-pyridin-4-yl-3,8-diazaspiro[4.5]decane-3-carbonyl)-2,3-dihydro-1H-inden-1-yl]-benzamide]
100% | 108% | O=C(N[C@@H]1CCc2ccc(C(=O)N3CCC4(CC3)CCN(c3ccncc3)CC4)cc21)c1c(Cl)cccc1Cl [Example H-100, 2,6-Dichloro-N-[(1R)-6-(9-pyridin-4-yl-3,9-diazaspiro[5.5]undecane-3-carbonyl)-2,3-dihydro-1H-inden-1-yl]-benzamide]
